According to ChEMBL document CHEMBL1128059, “Kelatorphan and related analogs: potent and selective inhibitors of leukotriene A4 hydrolase” (Bioorg Med Chem Lett, 1995):

Key:
[1] = Inhibitory activity against aminopeptidase
[2] = molecular target: T1, Angiotensin-converting enzyme (Oryctolagus cuniculus, UniProt P12822); test: Inhibitory activity against rabbit lung angiotensin-converting enzyme (ACE)
T1 sequence (P12822 whole entry): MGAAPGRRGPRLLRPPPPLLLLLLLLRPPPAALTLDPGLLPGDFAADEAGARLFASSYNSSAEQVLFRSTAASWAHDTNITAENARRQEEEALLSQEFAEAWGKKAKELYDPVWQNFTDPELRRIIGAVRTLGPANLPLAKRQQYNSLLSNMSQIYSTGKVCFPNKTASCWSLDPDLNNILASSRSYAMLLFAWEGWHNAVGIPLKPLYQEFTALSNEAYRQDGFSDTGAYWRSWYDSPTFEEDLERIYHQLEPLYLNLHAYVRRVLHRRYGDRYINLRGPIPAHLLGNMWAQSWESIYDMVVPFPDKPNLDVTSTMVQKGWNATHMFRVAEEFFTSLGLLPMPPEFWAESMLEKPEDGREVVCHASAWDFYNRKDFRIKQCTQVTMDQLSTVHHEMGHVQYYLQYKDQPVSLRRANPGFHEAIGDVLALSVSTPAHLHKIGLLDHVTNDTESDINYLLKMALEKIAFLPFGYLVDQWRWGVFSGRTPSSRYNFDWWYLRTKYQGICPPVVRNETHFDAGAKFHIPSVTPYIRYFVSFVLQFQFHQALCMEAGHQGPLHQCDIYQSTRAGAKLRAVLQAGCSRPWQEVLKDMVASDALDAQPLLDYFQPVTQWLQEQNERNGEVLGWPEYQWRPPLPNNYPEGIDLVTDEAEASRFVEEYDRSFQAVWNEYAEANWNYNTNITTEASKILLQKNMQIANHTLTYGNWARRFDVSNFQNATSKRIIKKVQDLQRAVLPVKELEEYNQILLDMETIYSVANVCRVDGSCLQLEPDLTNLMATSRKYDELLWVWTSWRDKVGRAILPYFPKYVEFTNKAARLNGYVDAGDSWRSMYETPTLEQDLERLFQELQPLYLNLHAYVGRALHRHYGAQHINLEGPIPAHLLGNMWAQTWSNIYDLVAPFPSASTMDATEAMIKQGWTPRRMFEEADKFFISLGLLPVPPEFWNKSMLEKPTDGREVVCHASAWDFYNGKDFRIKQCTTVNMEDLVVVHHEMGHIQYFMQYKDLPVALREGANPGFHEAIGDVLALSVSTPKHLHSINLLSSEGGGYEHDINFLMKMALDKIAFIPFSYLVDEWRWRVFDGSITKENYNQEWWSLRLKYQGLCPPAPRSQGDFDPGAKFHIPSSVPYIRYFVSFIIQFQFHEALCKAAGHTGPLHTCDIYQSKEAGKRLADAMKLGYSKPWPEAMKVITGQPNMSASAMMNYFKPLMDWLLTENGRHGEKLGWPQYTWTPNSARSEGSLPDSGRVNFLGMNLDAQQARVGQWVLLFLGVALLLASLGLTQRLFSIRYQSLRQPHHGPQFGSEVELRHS

[3] = molecular target: T2, Leukotriene A-4 hydrolase (Homo sapiens, UniProt P09960); test: Inhibitory activity against recombinant human Leukotriene A4 hydrolase
T2 sequence (P09960 whole entry): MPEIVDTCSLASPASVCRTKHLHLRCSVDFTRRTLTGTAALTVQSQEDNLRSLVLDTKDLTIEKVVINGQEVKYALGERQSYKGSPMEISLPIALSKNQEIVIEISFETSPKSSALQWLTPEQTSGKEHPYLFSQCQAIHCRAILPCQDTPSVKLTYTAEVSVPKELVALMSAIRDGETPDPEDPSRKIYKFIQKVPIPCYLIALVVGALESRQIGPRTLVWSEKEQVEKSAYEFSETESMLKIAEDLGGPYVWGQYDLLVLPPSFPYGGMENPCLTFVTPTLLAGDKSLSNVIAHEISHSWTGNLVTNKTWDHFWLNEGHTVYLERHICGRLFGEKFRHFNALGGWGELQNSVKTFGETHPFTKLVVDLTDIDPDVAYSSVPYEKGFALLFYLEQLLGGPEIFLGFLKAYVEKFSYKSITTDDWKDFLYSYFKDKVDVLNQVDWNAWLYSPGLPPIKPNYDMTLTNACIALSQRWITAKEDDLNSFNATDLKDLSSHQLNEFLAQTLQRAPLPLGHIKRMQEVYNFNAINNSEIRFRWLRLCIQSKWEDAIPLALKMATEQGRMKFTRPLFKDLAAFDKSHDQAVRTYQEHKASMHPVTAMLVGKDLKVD

Neprilysin = molecular target: T3, Neprilysin (Oryctolagus cuniculus, UniProt P08049); test: Inhibitory activity against rabbit kidney neutral endopeptidase (NEP)
T3 sequence (P08049 whole entry): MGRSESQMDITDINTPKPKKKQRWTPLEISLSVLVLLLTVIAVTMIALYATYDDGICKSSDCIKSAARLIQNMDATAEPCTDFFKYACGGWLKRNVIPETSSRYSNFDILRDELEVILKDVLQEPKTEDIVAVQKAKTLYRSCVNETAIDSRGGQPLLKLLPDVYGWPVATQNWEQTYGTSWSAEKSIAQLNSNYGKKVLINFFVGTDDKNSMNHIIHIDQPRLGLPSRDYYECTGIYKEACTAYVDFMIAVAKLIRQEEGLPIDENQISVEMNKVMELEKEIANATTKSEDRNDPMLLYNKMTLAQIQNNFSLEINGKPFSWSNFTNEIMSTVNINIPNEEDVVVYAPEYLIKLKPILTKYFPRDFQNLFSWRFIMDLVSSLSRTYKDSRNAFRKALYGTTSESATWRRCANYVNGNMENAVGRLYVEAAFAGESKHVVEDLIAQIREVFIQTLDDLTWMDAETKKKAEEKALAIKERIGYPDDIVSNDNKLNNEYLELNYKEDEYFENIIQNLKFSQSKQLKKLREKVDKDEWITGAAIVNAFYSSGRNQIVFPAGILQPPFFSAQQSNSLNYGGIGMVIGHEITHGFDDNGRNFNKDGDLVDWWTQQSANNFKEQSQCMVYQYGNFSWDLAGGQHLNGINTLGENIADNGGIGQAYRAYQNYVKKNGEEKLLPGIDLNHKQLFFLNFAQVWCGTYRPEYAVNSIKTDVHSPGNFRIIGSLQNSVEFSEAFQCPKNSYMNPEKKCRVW

[4] = molecular target: T1, Angiotensin-converting enzyme; test: Inhibitory activity against rabbit lung angiotensin-converting enzyme(ACE)
[5] = molecular target: T2, Leukotriene A-4 hydrolase; test: Inhibitory activity against LTA 4 hydrolase in epoxide hydrolase assay
[6] = molecular target: T2, Leukotriene A-4 hydrolase; test: Inhibitory activity against LTA 4 hydrolase in aminopeptidase assay

O=C(C[C@@H](Cc1ccccc1)C(=O)N1CCC[C@@H]1C(=O)O)NO
IC50 [1]: 15000 nM | IC50 [2]: > 100000 nM | IC50 [3]: 20000 nM

C[C@H](NC(=O)[C@@H](CCS)CC1CCCCC1)C(=O)O
IC50 (Neprilysin): > 100000 nM | IC50 [3]: > 3000 nM

C[C@H](NC(=O)[C@@H](CC(=O)NO)CC1CCCCC1)C(=O)O
IC50 [1]: 10 nM | IC50 [4]: > 100000 nM | IC50 (Neprilysin): 2000 nM | IC50 [3]: 5 nM

O=C(C[C@@H](Cc1ccccc1)C(=O)N1CCCC[C@H]1C(=O)O)NO
IC50 [1]: 10 nM | IC50 [4]: 40000 nM | IC50 (Neprilysin): 17000 nM | IC50 [3]: 8 nM

O=C(C[C@@H](Cc1ccccc1)C(=O)N[C@@H](Cc1c[nH]c2ccccc12)C(=O)O)NO
IC50 [1]: 5 nM | IC50 [3]: 10 nM

C[C@H](NC(=O)[C@@H](CCC(=O)NO)Cc1ccccc1)C(=O)O
IC50 [4]: 20000 nM | IC50 [3]: > 10000 nM

C[C@H](NC(=O)[C@@H](CC(=O)O)Cc1ccccc1)C(=O)O
IC50 [1]: 140 nM | IC50 [4]: > 100000 nM | IC50 [3]: 300 nM

O=C(C[C@@H](Cc1ccccc1)C(=O)N[C@@H](CC1CCCCC1)C(=O)O)NO
IC50 [1]: 42 nM | IC50 [4]: > 100000 nM | IC50 (Neprilysin): 104000 nM | IC50 [3]: 10 nM

CSCC[C@@H](NC(=O)[C@@H](CC(=O)NO)Cc1ccccc1)C(=O)O
IC50 [1]: 2 nM | IC50 [4]: 20000 nM | IC50 (Neprilysin): 61000 nM | IC50 [3]: 12 nM

O=C(C[C@@H](Cc1ccccc1)C(=O)N1CCC[C@H]1C(=O)O)NO
IC50 [1]: 18 nM | IC50 [2]: 3000 nM | IC50 (Neprilysin): > 36000 nM | IC50 [3]: 30 nM

O=C(C[C@@H](Cc1ccccc1)C(=O)N1CCCC[C@@H]1C(=O)O)NO
IC50 [1]: 2300 nM | IC50 [4]: > 100000 nM | IC50 [3]: 1800 nM

C[C@H](NC(=O)C(CS)Cc1ccccc1)C(=O)O (stereo not given in full)
IC50 [1]: > 10000 nM | IC50 [4]: 200 nM | IC50 [3]: > 3000 nM

C[C@@H](C(=O)O)N(C)C(=O)[C@@H](CC(=O)NO)Cc1ccccc1
IC50 [1]: 1 nM | IC50 [4]: > 100000 nM | IC50 (Neprilysin): 3400 nM | IC50 [3]: 3 nM

C[C@H](CS)C(=O)N1CCC[C@H]1C(=O)O [CAPTOPRIL]
IC50 [1]: 2000 nM | IC50 [3]: 10000 nM

C[C@H](NC(=O)[C@@H](CC(=O)NO)Cc1ccccc1)C(=O)O [KELATORPHAN]
IC50 [1]: 7 nM | Ki [5]: 18 nM | IC50 [2]: > 10000 nM | Ki [6]: 10 nM | IC50 (Neprilysin): 46 nM | IC50 [3]: 5 nM
